{
  "source": "patent US20060263340A1",
  "about": "“Treating gastrointestinal diseases with modulators of retinoic acid” (priority 2005, published 2006)",
  "key": {"B cells": {"test_system": "B cells", "test": "In vivo homing of B cells activated with anti-IgM antibody in the presence or absence of retinoic acid", "set-up": "species or system mouse", "procedure": "FIG. 16 illustrates the effect of retinoic acid (RA) in the homing potential of B cells activated with an anti IgM antibody. Mouse spleen B cells are activated with an anti-IgM antibody, either with or without RA, and in the presence of non-intestinal dendritic cells (D1-DC) to improve the effector B cell viability. After 4 days in culture, naïve, B220^+ and B220^Neg (plasmablasts) effector B cells are assayed for (A) α4β7 (MFI: mean fluorescence intensity). (B) CCR9, and (C-D) migration of B cells activated in the presence or the absence of RA. […] In addition, most of the cells localizing in the small bowel mucosa are B220^Low/Neg (plasmablasts). (D) Bar graphs showing the mean±SE of 2 independent experiments. The homing indices (HI) indicate how much more (or less) B cells activated in the presence of RA migrate with respect to those activated without RA in a given tissue (HI=1 means no difference). […]\nDendritic cells treated with retinoic acid (RA) as described in FIGS. 3-6, or gut derived DC (e.g. mobilized from Peyer's patches or mesenteric lymph nodes), or RA itself (see FIG. 15) can be used to activate naive or effector/memory T and/or B cells. […] After 4-5 days, the resulting effector T and/or B cells are analyzed for their expression of gut or skin homing molecules and migratory behavior (see FIG. 16)."}, "T cells": {"test_system": "T cells", "test": "In vivo migration of T cells activated with D1-DC pretreated with RA", "conditions": "T cells activated with D1-DC pretreated with RA for 3 days, injected into mice; average of two independent experiments (FIG. 19B)"}},
  "data": [
    {"compound": "CC1=C(/C=C/C(C)=C/C=C/C(C)=C/C(=O)O)C(C)(C)CCC1", "note": "[RA, retinoic acid]", "values": [
      {"measurement": "migration of B cells into the small bowel lamina propria as compared to those activated without RA (homing index)", "setting": "B cells; average of 2 independent experiments (FIG. 16D)", "result": "more than 10 times"},
      {"measurement": "localization of B cells in the small bowel lamina propria as compared to B cells activated without RA", "setting": "B cells; mouse spleen B cells activated with anti-IgM with RA, in presence of D1-DC, representative homing experiment (FIG. 16C)", "result": 24, "unit": "times"},
      {"measurement": "migration of T cells to the intestinal mucosa as compared to those activated with control D1-DC", "setting": "T cells", "result": 200, "unit": "times"}
    ]}
  ]
}
